Data on 24 molecules can be found in paper PMC12250965, “Design and Synthesis of Sulfonium and Selenonium Derivatives Bearing 3′,5′-O-Benzylidene Acetal Side Chain Structure as Potent α-Glucosidase Inhibitors” (Molecules, 2025).

One assay deals with rat intestinal maltase. Nature of the assay: In vitro α-glucosidase inhibition assay, rat intestinal maltase. It is filed as biochemical. The conditions noted are these: rat small intestinal brush border membrane vesicles; maltose substrate; mean ± SD (n = 3); read-out: IC50 against maltase. The method, then:
(§1) The testing method previously described was modified and used. Thus, rat small intestinal brush border membrane vesicles were first prepared, and its suspension in 0.1 M maleate buffer (pH = 6.0) was used as small intestinal α-glucosidases of maltase and sucrase. A test compound was dissolved in dimethylsulfoxide (DMSO), and the resulting solution was diluted with 0.1 M maleate buffer to prepare the test compound solution (concentration of DMSO: 10%). The substrate solution in maleate buffer ([…], 50 μL), a test compound solution (25 μL), and the enzyme solution (25 μL) were mixed and incubated at 37 °C for 30 min. After incubation, the solution was immediately heated by boiling water for 2 min to stop the reaction, and the solution was mixed with water (150 μL). Glucose concentration was determined by the glucose-oxidase method. […] The IC50 value was determined graphically by a plot of percent inhibition versus log of the test compound.

Another assay deals with T1, rat intestinal sucrase (Rattus norvegicus, UniProt P23739).
T1 construct: rat small intestinal brush border membrane vesicles were first prepared; from tissue; host or cells: rat small intestine, brush border membrane vesicles
T1 sequence (P23739 whole entry): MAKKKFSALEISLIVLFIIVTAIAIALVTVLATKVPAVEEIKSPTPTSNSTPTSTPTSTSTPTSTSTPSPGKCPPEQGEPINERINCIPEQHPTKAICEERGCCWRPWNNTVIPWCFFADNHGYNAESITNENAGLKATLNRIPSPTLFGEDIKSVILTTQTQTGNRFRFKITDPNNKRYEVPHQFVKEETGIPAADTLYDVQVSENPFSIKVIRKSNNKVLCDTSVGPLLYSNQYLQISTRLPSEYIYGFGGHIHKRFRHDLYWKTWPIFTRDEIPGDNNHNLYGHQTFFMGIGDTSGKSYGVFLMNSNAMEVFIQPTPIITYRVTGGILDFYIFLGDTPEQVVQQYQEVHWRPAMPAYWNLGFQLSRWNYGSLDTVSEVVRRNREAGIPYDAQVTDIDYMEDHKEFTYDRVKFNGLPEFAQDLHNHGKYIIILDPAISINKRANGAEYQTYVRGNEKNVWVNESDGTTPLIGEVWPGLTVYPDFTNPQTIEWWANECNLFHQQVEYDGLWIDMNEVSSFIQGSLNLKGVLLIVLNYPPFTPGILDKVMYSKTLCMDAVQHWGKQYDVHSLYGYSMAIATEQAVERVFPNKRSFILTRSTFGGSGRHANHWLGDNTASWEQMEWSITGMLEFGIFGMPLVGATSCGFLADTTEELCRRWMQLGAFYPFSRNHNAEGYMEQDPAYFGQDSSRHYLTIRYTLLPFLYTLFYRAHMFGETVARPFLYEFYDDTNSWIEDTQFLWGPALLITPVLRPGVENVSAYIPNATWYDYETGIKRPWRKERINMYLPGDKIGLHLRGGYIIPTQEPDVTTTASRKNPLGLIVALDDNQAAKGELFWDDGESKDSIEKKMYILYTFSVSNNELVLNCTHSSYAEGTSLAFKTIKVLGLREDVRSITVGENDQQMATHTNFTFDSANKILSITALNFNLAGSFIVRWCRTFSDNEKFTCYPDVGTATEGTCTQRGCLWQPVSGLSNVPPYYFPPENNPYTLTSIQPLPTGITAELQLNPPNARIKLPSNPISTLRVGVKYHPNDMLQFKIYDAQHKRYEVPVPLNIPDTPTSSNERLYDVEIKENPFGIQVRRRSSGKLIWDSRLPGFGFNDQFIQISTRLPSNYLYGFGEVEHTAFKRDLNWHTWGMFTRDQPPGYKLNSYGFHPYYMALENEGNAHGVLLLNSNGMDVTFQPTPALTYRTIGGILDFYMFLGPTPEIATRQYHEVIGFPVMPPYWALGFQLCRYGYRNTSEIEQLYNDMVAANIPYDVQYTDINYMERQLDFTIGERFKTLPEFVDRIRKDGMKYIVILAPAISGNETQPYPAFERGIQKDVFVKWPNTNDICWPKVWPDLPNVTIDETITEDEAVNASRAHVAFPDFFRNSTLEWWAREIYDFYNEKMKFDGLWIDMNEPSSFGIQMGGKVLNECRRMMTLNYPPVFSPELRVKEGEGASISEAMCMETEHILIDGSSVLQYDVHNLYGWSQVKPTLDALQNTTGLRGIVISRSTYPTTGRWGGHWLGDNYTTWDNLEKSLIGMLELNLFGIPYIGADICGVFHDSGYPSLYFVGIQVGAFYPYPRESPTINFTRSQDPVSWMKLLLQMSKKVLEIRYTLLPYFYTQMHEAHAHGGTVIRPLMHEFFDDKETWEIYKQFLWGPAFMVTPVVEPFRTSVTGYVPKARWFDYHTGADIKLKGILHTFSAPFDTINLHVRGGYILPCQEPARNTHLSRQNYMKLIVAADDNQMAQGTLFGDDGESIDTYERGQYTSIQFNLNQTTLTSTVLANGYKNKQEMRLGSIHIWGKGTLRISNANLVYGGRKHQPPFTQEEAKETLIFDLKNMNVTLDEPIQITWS
As to the kind of experiment: In vitro α-glucosidase inhibition assay, rat intestinal sucrase. The assay is classed as biochemical. The method, then:
as §1

Setting [1] is: rat small intestinal brush border membrane vesicles, sucrose substrate, mean ± SD (n = 3), read-out: IC50 against sucrase.

Read-outs that look alike come from different tables or passages of the source.

As a reminder, the IC50 is the concentration that inhibits the measured activity by half. Take `OCC1C(O)C(O)C[S+]1CC(O)C1OC(c2cc(C(F)(F)F)cc(C(F)(F)F)c2)OCC1O` [19i, 1,4-Dideoxy-1,4-[(R)-(5-deoxy-1,3-O-(3,5-bis(trifluoromethyl)benzylidene)-D-arabinitol-5-yl)episulfoniumylidene]-D-arabinitol chloride]: the IC50 at rat intestinal maltase turned out to be 8.9 ± 0.53 µM; at rat intestinal sucrase (setting [1]) it was 10 ± 1.8 µM. For the molecule `OCC1C(O)C(O)C[S+]1CC(O)C1OC(c2cccc(Br)c2)OCC1O` [19l, 1,4-Dideoxy-1,4-[(R)-(5-deoxy-1,3-O-(m-bromobenzylidene)-D-arabinitol-5-yl)episulfoniumylidene]-D-arabinitol chloride], the IC50 on rat intestinal maltase stood at 9.7 ± 0.74 µM; on rat intestinal sucrase (setting [1]), 7.9 ± 1.6 µM. For the molecule `OC[C@@H]1[C@@H](O)[C@H](O)C[Se@+]1C[C@@H](O)[C@H]1OC(c2ccccc2F)OC[C@H]1O` (stereo partly drawn) [20n, (1S,2R,3S,4S)-1-((2S)-2-((4S,5R)-2-(2-Fluorophenyl)-5-hydroxy-1,3-dioxan-4-yl)-2-hydroxyethyl)-3,4-dihydroxy-2-(hydroxymethyl)tetrahydro-1H-selenophen-1-ium chloride], the half-inhibitory concentration (IC50) on rat intestinal maltase worked out at 3.75 ± 0.58 µM; against rat intestinal sucrase it was 0.2 ± 0.06 µM.

Regarding `OC[C@@H]1[C@@H](O)[C@H](O)C[Se@+]1C[C@@H](O)[C@H]1OC(c2ccc(Cl)cc2Cl)OC[C@H]1O` (stereo partly drawn) [20b, (1S,2R,3S,4S)-1-((2S)-2-((4S,5R)-2-(2,4-Dichlorophenyl)-5-hydroxy-1,3-dioxan-4-yl)-2-hydroxyethyl)-3,4-dihydroxy-2-(hydroxymethyl)tetrahydro-1H-selenophen-1-ium chloride], the IC50 on rat intestinal maltase came out at 0.26 ± 0.08 µM; against rat intestinal sucrase it was 0.22 ± 0.06 µM. In the case of `OC[C@@H]1[C@@H](O)[C@H](O)C[Se@+]1C[C@@H](O)[C@H]1OC(c2cc(F)cc(Cl)c2)OC[C@H]1O` (stereo partly drawn) [20h, (1S,2R,3S,4S)-1-((2S)-2-((4S,5R)-2-(3-Chloro-5-fluorophenyl)-5-hydroxy-1,3-dioxan-4-yl)-2-hydroxyethyl)-3,4-dihydroxy-2-(hydroxymethyl)tetrahydro-1H-selenophen-1-ium chloride], the 50% inhibitory concentration (IC50) on rat intestinal maltase came to 3.67 ± 0.89 µM; at rat intestinal sucrase, 1.96 ± 0.25 µM. For the molecule `OCC1C(O)C(O)C[S+]1CC(O)C1OC(c2cc(F)cc(Cl)c2)OCC1O` [19h, 1,4-Dideoxy-1,4-[(R)-(5-deoxy-1,3-O-(3-chloro-5-fluorobenzylidene)-D-arabinitol5-yl)episulfoniumylidene]-D-arabinitol chloride], the IC50 at rat intestinal maltase stood at 0.85 ± 0.28 µM; on rat intestinal sucrase (setting [1]), 1.4 ± 0.33 µM. For `OCC1C(O)C(O)C[S+]1CC(O)C1OC(c2ccc(Cl)c(Cl)c2)OCC1O` [19f, 1,4-Dideoxy-1,4-[(R)-(5-deoxy-1,3-O-(3,4-dichlorobenzylidene)-D-arabinitol-5-yl)episulfoniumylidene]-D-arabinitol chloride] the same measures were 5 ± 0.39 µM and 4.6 ± 0.09 µM. Take `N#Cc1ccccc1C1OCC(O)C(C(O)C[S+]2CC(O)C(O)C2CO)O1` [19p, 1,4-Dideoxy-1,4-[(R)-(5-deoxy-1,3-O-(o-cyanobenzyliden)-D-arabinitol-5-yl)episulfoniumylidene]-D-arabinitol chloride]: the 50% inhibitory concentration (IC50) at rat intestinal maltase was determined as 0.88 ± 0.04 µM; at rat intestinal sucrase (setting [1]), 0.9 ± 0.05 µM. With `N#Cc1ccccc1C1OC[C@@H](O)[C@@H]([C@H](O)C[Se@@+]2C[C@@H](O)[C@H](O)[C@H]2CO)O1` (stereo partly drawn) [20p, (1S,2R,3S,4S)-1-((2S)-2-((4S,5R)-2-(2-Cyanophenyl)-5-hydroxy-1,3-dioxan-4-yl)-2-hydroxyethyl)-3,4-dihydroxy-2-(hydroxymethyl)tetrahydro-1H-selenophen-1-ium chloride], the IC50 at rat intestinal maltase amounted to 0.82 ± 0.21 µM; against rat intestinal sucrase, 0.37 ± 0.05 µM. With `OCC1C(O)C(O)C[S+]1CC(O)C1OC(c2ccc(Cl)cc2Cl)OCC1O` [19b, 1,4-Dideoxy-1,4-[(R)-(5-deoxy-1,3-O-(2,4-dichlorobenzylidene)-D-arabinitol-5-yl)episulfoniumylidene]-D-arabinitol chloride], the IC50 was found to be 2 ± 0.08 µM on rat intestinal maltase and 1.2 ± 0.23 µM on rat intestinal sucrase (setting [1]). Take `OCC1C(O)C(O)C[S+]1CC(O)C1OC(c2cc(Cl)ccc2Cl)OCC1O` [19c, 1,4-Dideoxy-1,4-[(R)-(5-deoxy-1,3-O-(2,5-dichlorobenzylidene)-D-arabinitol-5-yl)episulfoniumylidene]-D-arabinitol chloride]: the 50% inhibitory concentration (IC50) turned out to be 0.55 ± 0.05 µM at rat intestinal maltase and 0.8 ± 0.12 µM at rat intestinal sucrase (setting [1]). Take `OC[C@@H]1[C@@H](O)[C@H](O)C[Se@+]1C[C@@H](O)[C@H]1OC(c2cccc(Br)c2)OC[C@H]1O` (stereo partly drawn) [20l, (1S,2R,3S,4S)-1-((2S)-2-((4S,5R)-2-(3-Bromophenyl)-5-hydroxy-1,3-dioxan-4-yl)-2-hydroxyethyl)-3,4-dihydroxy-2-(hydroxymethyl)tetrahydro-1H-selenophen-1-ium chloride]: the 50% inhibitory concentration (IC50) on rat intestinal maltase stood at 0.69 ± 0.05 µM; against rat intestinal sucrase it was 0.21 ± 0.02 µM. As to `OCC1C(O)C(O)C[S+]1CC(O)C1OC(c2cccc3ccccc23)OCC1O` [19q, 1,4-Dideoxy-1,4-[(R)-(5-deoxy-1,3-O-(1-naphthalene)-D-arabinitol-5-yl)episulfoniumylidene]-D-arabinitol chloride], the concentration for half-maximal inhibition (IC50) came out at 4.6 ± 0.37 µM on rat intestinal maltase and 5.8 ± 0.41 µM at rat intestinal sucrase (setting [1]). With `OCC1C(O)C(O)C[S+]1CC(O)C1OC(c2cccc(F)c2Cl)OCC1O` [19d, 1,4-Dideoxy-1,4-[(R)-(5-deoxy-1,3-O-(2-chloro-3-fluorobenzylidene)-D-arabinitol-5-yl)episulfoniumylidene]-D-arabinitol chloride], the half-inhibitory concentration (IC50) is 1 ± 0.05 µM at rat intestinal maltase and 0.7 ± 0.13 µM at rat intestinal sucrase (setting [1]). On to `OCC1C(O)C(O)C[S+]1CC(O)C1OC(c2cccc(Cl)c2Cl)OCC1O` [19a, 1,4-Dideoxy-1,4-[(R)-(5-deoxy-1,3-O-(2,3-dichlorobenzylidene)-D-arabinitol-5-yl)episulfoniumylidene]-D-arabinitol chloride], for which the results for the concentration for half-maximal inhibition (IC50) at rat intestinal maltase and on rat intestinal sucrase (setting [1]) were 0.5 ± 0.08 µM and 1.6 ± 0.43 µM, respectively.

`OC[C@@H]1[C@@H](O)[C@H](O)C[Se@+]1C[C@@H](O)[C@H]1OC(c2ccccc2-c2ccccc2)OC[C@H]1O` (stereo partly drawn) [20r, (1S,2R,3S,4S)-1-((2S)-2-((4S,5R)-2-([1,1′-biphenyl]-2-yl)-5-hydroxy-1,3-dioxan-4-yl)-2-hydroxyethyl)-3,4-dihydroxy-2-(hydroxymethyl)tetrahydro-1H-selenophen-1-ium chloride]: the concentration for half-maximal inhibition (IC50) on rat intestinal maltase was 2 ± 0.52 µM; against rat intestinal sucrase, 0.72 ± 0.17 µM. Regarding `OCC1C(O)C(O)C[S+]1CC(O)C1OC(c2ccccc2-c2ccccc2)OCC1O` [19r, 1,4-Dideoxy-1,4-[(R)-(5-deoxy-1,3-O-(2-phenylbenzylidene)-D-arabinitol-5-yl)episulfoniumylidene]-D-arabinitol chloride], the results for the IC50 on rat intestinal maltase and at rat intestinal sucrase (setting [1]) were 10.5 ± 1.1 µM and 3.3 ± 0.22 µM, respectively. For `OCC1C(O)C(O)C[S+]1CC(O)C1OC(c2ccccc2Br)OCC1O` [19k, 1,4-Dideoxy-1,4-[(R)-(5-deoxy-1,3-O-(o-bromobenzylidene)-D-arabinitol-5-yl)episulfoniumylidene]-D-arabinitol chloride] the same measures were 1.9 ± 0.08 µM and 1.1 ± 0.02 µM.

For the molecule `OCC1C(O)C(O)C[S+]1CC(O)C1OC(c2ccc(Br)cc2)OCC1O` [19m, 1,4-Dideoxy-1,4-[(R)-(5-deoxy-1,3-O-(p-bromobenzylidene)-D-arabinitol-5-yl)episulfoniumylidene]-D-arabinitol chloride], the figures for the concentration for half-maximal inhibition (IC50) on rat intestinal maltase and on rat intestinal sucrase (setting [1]) were 4.1 ± 0.08 µM and 3.5 ± 0.06 µM, respectively. As for `OC[C@@H]1[C@@H](O)[C@H](O)C[Se@@+]1C[C@@H](O)[C@H]1OC(c2cccc3ccccc23)OC[C@H]1O` (stereo partly drawn) [20q, (1S,2R,3S,4S)-3,4-dihydroxy-1-((2S)-2-hydroxy-2-((4S,5R)-5-hydroxy-2-(naphthalen-1-yl)-1,3-dioxan-4-yl)ethyl)-2-(hydroxymethyl)tetrahydro-1H-selenophen-1-ium chloride], the 50% inhibitory concentration (IC50) on rat intestinal maltase came to 0.92 ± 0.23 µM; on rat intestinal sucrase, 0.68 ± 0.14 µM.

Take `OC[C@@H]1[C@@H](O)[C@H](O)C[Se@+]1C[C@@H](O)[C@H]1OC(c2cc(F)ccc2Cl)OC[C@H]1O` (stereo partly drawn) [20e, (1S,2R,3S,4S)-1-((2S)-2-((4S,5R)-2-(2-Chloro-5-fluorophenyl)-5-hydroxy-1,3-dioxan-4-yl)-2-hydroxyethyl)-3,4-dihydroxy-2-(hydroxymethyl)tetrahydro-1H-selenophen-1-ium chloride]: the IC50 on rat intestinal maltase is 0.45 ± 0.08 µM; on rat intestinal sucrase, 0.41 ± 0.11 µM. Turning to `OC[C@@H]1[C@@H](O)[C@H](O)C[Se@@+]1C[C@@H](O)[C@H]1OC(c2ccccc2I)OC[C@H]1O` (stereo partly drawn) [20o, (1S,2R,3S,4S)-3,4-Dihydroxy-1-((2S)-2-hydroxy-2-((4S,5R)-5-hydroxy-2-(2-iodophenyl)-1,3-dioxan-4-yl)ethyl)-2-(hydroxymethyl)tetrahydro-1H-selenophen-1-ium chloride], the IC50 was 0.36 ± 0.07 µM at rat intestinal maltase and 0.3 ± 0.11 µM on rat intestinal sucrase. In the case of `OCC1C(O)C(O)C[S+]1CC(O)C1OC(c2ccccc2I)OCC1O` [19o, 1,4-Dideoxy-1,4-[(R)-(5-deoxy-1,3-O-(o-iodobenzylidene)-D-arabinitol-5-yl)episulfoniumylidene]-D-arabinitol chloride], the IC50 on rat intestinal maltase worked out at 3.1 ± 0.66 µM; at rat intestinal sucrase (setting [1]) it was 3.3 ± 0.28 µM.

With `OCC1C(O)C(O)C[S+]1CC(O)C1OC(c2cc(F)ccc2Cl)OCC1O` [19e, 1,4-Dideoxy-1,4-[(R)-(5-deoxy-1,3-O-(2-chloro-5-fluorobenzylidene)-D-arabinitol-5-yl)episulfoniumylidene]-D-arabinitol chloride], at rat intestinal sucrase (setting [1]), the IC50 amounted to 6.6 ± 0.45 µM.
